Tested on: STZ induced diabetic rats
Assay: Reduction in serum glucose in STZ induced diabetic rats
Assay type: in vivo, Wistar rats
Conditions: 10 IU/Kg insulin via subcutaneous route
Protocol: Wistar rats (150-200 g) of both sexes were obtained from National Institute of Nutrition, Hyderabad. The animals were housed at a room temperature of 22±2° C. with 12 h light/dark cycle and 45-50% relative humidity. The animals had ad libitum access to a standard chow diet (Nutrilab, Banglore) and water except, wherever indicated. After randomization into various groups, the rats were acclimatized for a period of seven days in the new environment before initiation of the experiment.
Diabetes was induced by streptozotocin (STZ) injection. STZ in rats leads to the development of a clinical syndrome characterized by hyperglycemia, excessive osmotic diuresis, and loss of weight, which is similar to human diabetes. Moreover, the STZ-diabetic rat develops the usual chronic microvascular complications (nephropathy, peripheral and autonomic neuropathy) as observed in diabetic patients. Schaan, B. D., et al. Braz J Med Biol Res, 37:12:1895-1902 (2004).
Animals were made diabetic by injecting 50-60 mg/kg STZ dissolved in sodium citrate buffer, pH 4.5. Rats were fasted overnight before STZ administration. STZ-treated rats were used only when they developed elevated plasma glucose levels (confirmed by qualitative measurements of blood glucose >300 mg% 48 h after injection). Metabolic control was evaluated on the basis of plasma glucose and animal weight at the end of the experiments.
The diabetic rats were randomly divided in to six groups consisting of 4 animals. The lyophilized lectin coupled insulin loaded solid lipid nanoparticle formulations (F1, F2, F3 and F4), mentioned in the above examples, containing 10 IU/Kg of total insulin were administered orally to the respective groups after re-dispersing in the appropriate volume of physiological saline solution. The fifth group was treated with 10 IU/Kg of insulin via subcutaneous route and the sixth group was the control group. The control diabetic rats were not treated with insulin or any drug, but an equivalent volume of physiological saline solution was given orally.
The blood samples were collected at each scheduled time intervals. The plasma was separated by centrifugation and serum glucose levels were estimated as described in Bergmeyer, H. U. Methods of Enzymatic Analysis New York: Academic (1974). Plasma samples of all animals were stored at −80° C. until analyzed.

Substance: insulin [Unencapsulated Insulin]
- Mean % Reduction in serum Glucose Levels (2.0 hrs): 8.2 ± 2.3%
- Mean % Reduction in serum Glucose Levels (3.0 hrs): 15.1 ± 1.2%
- Mean % Reduction in serum Glucose Levels (4.0 hrs): 23.2 ± 3.2%
- Mean % Reduction in serum Glucose Levels (5.0 hrs): 36.2 ± 1.2%
- Mean % Reduction in serum Glucose Levels (6.0 hrs): 12.1 ± 4.3%
- Mean % Reduction in serum Glucose Levels (8.0 hrs): 19.2 ± 3.3%
- Mean % Reduction in serum Glucose Levels (10.0 hrs): 25.1 ± 3.2%
- Mean % Reduction in serum Glucose Levels (12.0 hrs): 29.2 ± 1.2%

From patent US20080311214A1, “Polymerized solid lipid nanoparticles for oral or mucosal delivery of therapeutic proteins and peptides” (Transgene Biotek Limited, priority 2006, published 2008)
